This note sets out measurements from ChEMBL document CHEMBL4613290, “Discovery of Reversible Inhibitors of KDM1A Efficacious in Acute Myeloid Leukemia Models” (ACS Med Chem Lett, 2020).

Some results are limits rather than exact numbers.

Data set [1] addresses Lysine-specific histone demethylase 1A (Homo sapiens, UniProt O60341). Kind of data set: Inhibition of recombinant human LSD1 expressed in Escherichia coli using biotinylated H3K4me as substrate by TR-FRET assay. (In TR-FRET formats the signal depends on donor and acceptor labels being close together.)
For data set [2], the system named is THP-1. Nature of the data set: Anticlonogenic activity against human THP1 cells assessed as inhibition of colony formation at 500 nM measured after 13 days relative to control. The class given is functional. The following applies: THP-1, 312 h.
The subject of data set [3] is THP-1. Nature of the data set: Anticlonogenic activity against human THP1 cells assessed as inhibition of colony formation at 50 nM measured after 13 days relative to control. The data set is classed as functional. The following applies: THP-1, 312 h.
Data set [4] is described as follows: Antitumor activity against human MLL-AF9 xenografted in sub-lethal irradiated C57BL6JCRL mouse assessed as increase in mouse survival at 30 mg/kg, po administered 5 days per week for 2 weeks starting after 10 days post-injection by Kaplan-Meier plot analysis relative to control. The class given is functional. On the technique in general: Xenograft models place foreign cells or tissue in a host animal.

A short description of data set [5]: Toxicity in sub-lethal irradiated C57BL6JCRL mouse xenografted with human MLL-AF9 cells assessed as effect on body weight at 15 to 30 mg/kg, po administered 5 days per week for 2 weeks starting after 10 days post-injection. The data set is classed as organism-based. The following applies: in vivo.
The nature of data set [6]: Toxicity in non-irradiated mouse injected with APL blast cells assessed as effect on body weight at 15 and 30 mg/kg, po administered 5 days per week for 2 weeks starting after 10 days post-injection. The following applies: in vivo. The data set is classed as organism-based.
Data set [7] can be described thus: Oral bioavailability in CD-1 mouse at 15 mg/kg administered as single dose. The following applies: in vivo. The class given is ADME, organism-based.
Data set [8] can be described thus: Antitumor activity against mouse APL blast injected in non-irradiated mouse assessed as increase in mouse survival at 15 mg/kg, po administered 5 days per week for 2 weeks starting after 10 days post-injection by Kaplan-Meier plot analysis relative to control. The data set is classed as functional.
The nature of data set [9]: Half life in CD-1 mouse at 5 mg/kg, iv administered as single dose. The following applies: in vivo. The class given is ADME, organism-based.
The nature of data set [10]: Cmax in CD-1 mouse at 15 mg/kg, po administered as single dose. The class given is ADME, organism-based. Further details: dose 15 mg/kg, route oral. The following applies: in vivo.
Data set [11] in a line: Cmax in CD-1 mouse at 5 mg/kg, iv administered as single dose. The data set is classed as ADME, organism-based. Further details: dose 5 mg/kg, route intravenous. The following applies: in vivo.
Data set [12] in a line: Antitumor activity against human MLL-AF9 xenografted in sub-lethal irradiated C57BL6JCRL mouse assessed as increase in mouse survival at 15 mg/kg, po administered 5 days per week for 2 weeks starting after 10 days post-injection by Kaplan-Meier plot analysis relative to control. The data set is classed as functional.
Data set [13] can be described thus: Tmax in CD-1 mouse at 15 mg/kg, po administered as single dose. The following applies: in vivo. The class given is ADME, organism-based.
The subject of data set [14] is Mus musculus. Nature of the data set: Antitumor activity against mouse APL blast injected in non-irradiated po dosed mouse assessed as increase in mouse survival administered 5 days per week for 2 weeks starting after 10 days post-injection by Kaplan-Meier plot analysis relative to control. The data set is classed as functional, organism-based.
The nature of data set [15]: Clearance in CD-1 mouse at 5 mg/kg, iv administered as single dose. The class given is ADME, organism-based. The following applies: in vivo.
The nature of data set [16]: Toxicity in non-irradiated mouse injected with APL blast cells assessed as effect on body weight at 60 mg/kg, po administered 5 days per week for 2 weeks starting after 10 days post-injection measured after 1st week of treatment. The class given is organism-based. The following applies: in vivo.
Data set [17] can be described thus: Antitumor activity against mouse APL blast injected in non-irradiated mouse assessed as increase in mouse survival at 30 mg/kg, po administered 5 days per week for 2 weeks starting after 10 days post-injection by Kaplan-Meier plot analysis relative to control. The data set is classed as functional.
Data set [18] in a line: AUC (0 to infinity) in CD-1 mouse at 15 mg/kg, po administered as single dose. The data set is classed as ADME, organism-based. Details: dose 15 mg/kg, time infinity, route oral. The following applies: in vivo.
Data set [19] in a line: Volume of distribution at steady state in CD-1 mouse at 5 mg/kg, iv administered as single dose. The class given is ADME, organism-based. The following applies: in vivo, read-out: Vdss.
Data set [20] is described as follows: AUC (0 to infinity) in CD-1 mouse at 5 mg/kg, iv administered as single dose. The class given is ADME, organism-based. Details: dose 5 mg/kg, time infinity, route intravenous. The following applies: in vivo.

In the case of `Cn1c(-c2nc3ccccc3[nH]2)cc2sccc21`, the IC50 in [1] is over 100 µM.

For the compound `Cn1c(C(=O)Cc2ccccc2)cc2sccc21`, in data set [1], the IC50 is over 100 µM.

In the case of `CCc1cn(CCOc2ccc(OC3CCNCC3)cc2)c(-c2cc3sccc3n2C)n1`, the inhibition at 0.5 µM in data set [2] is 72.3%. Moreover, the inhibition at 0.05 µM in [3] was 27.6%.

Consider `Cn1c(-c2ncc(-c3ccccc3)o2)cc2sccc21`, for which the IC50 in [1] is over 100 µM.

With `Cn1c(NC(=O)c2ccccc2)cc2sccc21`, the half-maximal inhibitory concentration (IC50) in data set [1] is over 100 µM.

Take `CCc1cn(CCCc2ccc(OC3CCNCC3)cc2)c(-c2cc3sccc3n2C)n1`: in data set [2], the inhibition at 0.5 µM amounted to 61.4%. For the same compound, the inhibition at 0.05 µM in data set [3] was found to be 33.3%.

Turning to `Cn1c(-c2nc(C3CCC3)cn2CCCc2ccc(OC3CCCNCC3)cc2)cc2sccc21` (stereo not given), the inhibition at 0.5 µM in data set [2] is 74.2%. For the same compound, the inhibition at 0.05 µM in [3] is 40.9%.

Consider `Cn1c(-c2nc(C3CCC3)cn2CCOc2ccc(OC3CCNCC3)cc2)cc2sccc21`, for which the inhibition at 0.5 µM in data set [2] turned out to be 73.3%. Further, the inhibition at 0.05 µM in [3] is 33%.

For `Cn1c(-c2nnc(-c3ccccc3)o2)cc2sccc21`, the IC50 in data set [1] was over 100 µM.

As to `Cn1c(-c2nnc(-c3ccccc3)[nH]2)cc2sccc21`, the IC50 in data set [1] is over 100 µM.

In the case of `CCCc1cn(CCCc2ccc(OC3CCCNCC3)cc2)c(-c2cc3sccc3n2C)n1` (stereo not given), the inhibition at 0.5 µM in data set [2] was found to be 64.2%. Further, in data set [3], the inhibition at 0.05 µM turned out to be 46.6%.

`Cn1c(-c2nc(C3CCC3)cn2CCCc2ccc(OC3CCNCC3)cc2)cc2sccc21`: the Activity in data set [4] is 70%; in data set [5] it was “Non-Toxic”; in data set [6], “Non-Toxic”; in data set [8], 20%; in [12], 29%; in data set [14] it was “Dose-dependent effect”. The Activity result is given as “Toxic” in [16] and 55% in data set [17]. Further, the inhibition at 0.5 µM in [2] came out at 72.3%. In [7], this compound had a bioavailability of 17%. In [3], the inhibition at 0.05 µM was 38.8%. The compound also showed a half-life in data set [9] of 6 h. The Cmax in data set [10] is 320 nM; in data set [11], 2540 nM. Further, the time to peak (Tmax) in [13] is 0.417 h. The compound also yielded a clearance in data set [15] of 37.5 mL/min/kg. For the same compound, the AUC(0-inf) in [18] amounted to 2.03 µM·h; in data set [20], 4.2 µM·h. Moreover, in [19], the Vd worked out at 10.2 L/kg.

One may read the IC50 as the concentration needed to halve the response being measured. For orientation: inhibition means the percentage by which the read-out fell short of the control. The term bioavailability denotes dose-corrected exposure relative to a reference, in per cent. Lower therefore signals little systemic uptake. As usually defined, the half-life is the time in which the quantity being followed falls by half. High values mean slow decline, low ones rapid decline. Broadly, the Cmax is the highest concentration seen after dosing. As a reminder, the Tmax is the time at which the peak concentration occurs. In general, clearance refers to a measure of how efficiently the substance is removed, as volume per time. A low value points to inefficient removal. Usually AUC(0-inf) stands for total exposure, with the tail of the curve extrapolated.
